In patent publication US9279807B2, “Materials and methods for the treatment of celiac disease” (ALBA THERAPEUTICS CORPORATION, priority 2006, dated 2016):
Entries after “also recorded” stand apart in the source; their conditions may differ. Residues, ends and D or L forms follow the SMILES beside them.

Experiments:
rats = assay: Toxicity studies in rats; assay type: in vivo, rat
Source text: Toxicity studies have been performed in rats and Beagle dogs. […] Any alterations in clinical chemistry, hematology, coagulation, urinalysis and organ weight data were considered coincidental based on absence of dose-response relationships and absence of histopathological changes.

[1] = target: T1, potassium selective IKr current (hERG) (Homo sapiens, UniProt Q12809); assay: hERG test; assay type: cell-based; conditions: up to 1 ng/mL, stably transfected, normoxic conditions
T1 construct: expressed in transfected cells; host or cells: HEK 203 cells (so in the source)
T1 sequence (Q12809 whole entry): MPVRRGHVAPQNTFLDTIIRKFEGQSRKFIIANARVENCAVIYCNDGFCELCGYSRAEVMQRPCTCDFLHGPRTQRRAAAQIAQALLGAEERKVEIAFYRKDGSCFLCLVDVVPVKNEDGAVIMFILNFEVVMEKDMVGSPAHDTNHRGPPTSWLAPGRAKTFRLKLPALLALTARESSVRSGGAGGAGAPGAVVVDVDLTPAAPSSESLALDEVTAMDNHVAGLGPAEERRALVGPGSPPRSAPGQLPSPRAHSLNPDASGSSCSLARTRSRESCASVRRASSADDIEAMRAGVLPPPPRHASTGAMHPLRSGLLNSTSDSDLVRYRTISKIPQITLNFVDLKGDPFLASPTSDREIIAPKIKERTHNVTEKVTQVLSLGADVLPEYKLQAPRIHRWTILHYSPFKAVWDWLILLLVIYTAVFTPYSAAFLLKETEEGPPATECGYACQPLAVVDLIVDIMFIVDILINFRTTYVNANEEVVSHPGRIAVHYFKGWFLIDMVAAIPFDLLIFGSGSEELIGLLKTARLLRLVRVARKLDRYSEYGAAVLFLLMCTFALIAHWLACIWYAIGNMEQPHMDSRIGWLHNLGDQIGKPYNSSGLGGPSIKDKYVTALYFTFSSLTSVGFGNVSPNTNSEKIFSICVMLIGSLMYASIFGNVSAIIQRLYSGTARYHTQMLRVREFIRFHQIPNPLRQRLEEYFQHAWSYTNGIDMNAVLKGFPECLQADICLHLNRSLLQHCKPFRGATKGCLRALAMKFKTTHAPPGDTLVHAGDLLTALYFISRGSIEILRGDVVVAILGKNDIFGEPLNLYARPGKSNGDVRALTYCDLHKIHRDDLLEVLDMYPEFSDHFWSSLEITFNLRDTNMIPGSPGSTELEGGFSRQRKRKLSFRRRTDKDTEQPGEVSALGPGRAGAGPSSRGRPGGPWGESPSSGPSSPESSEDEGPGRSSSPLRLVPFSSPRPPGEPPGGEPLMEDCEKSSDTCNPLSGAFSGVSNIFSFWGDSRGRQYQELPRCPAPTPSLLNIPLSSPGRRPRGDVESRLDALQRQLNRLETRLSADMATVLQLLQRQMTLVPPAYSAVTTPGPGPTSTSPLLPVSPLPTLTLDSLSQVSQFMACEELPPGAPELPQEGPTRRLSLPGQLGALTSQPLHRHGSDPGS
Source text: (§1) Two safety pharmacology studies for cardiotoxicity effects have been performed.

[2] = Stability of drug substance; assay type: physicochemical; conditions: room temperature
[3] = tested on: Salmonella and E. coli strains; assay: Ames test (bacterial reverse mutation assay); conditions: up to 5000 μg per plate, with and without metabolic activation
[4] = Plasma drug levels, multi-dose trial; assay type: in vivo, human; conditions: 3 times a day for 10 days; llq 0.5 ng/ml
Beagle dogs = assay: Toxicity studies in Beagle dogs; assay type: in vivo, dog
Source text: […] […] Any alterations in clinical pathology profiles were considered coincidental in nature. No alterations in absolute or relative organ weight data were detected.

Celiac Disease subjects = assay: Phase IIa multiple dose POC study (CLIN1001-004), safety
Source text: Study drug will be dispensed to subjects for fourteen (14) days of treatment. Study drug will be administered three times a day. […] Gluten or gluten placebo will be taken during each meal. Subjects will remain on their gluten-free diet throughout the duration of the trial.
All adverse events reported during the study will be listed, documenting course, severity, and outcome. Adverse events will be summarized by treatment, the MedDRA system organ class, and maximum severity. Laboratory parameters, vital signs, EKG assessments, and physical exam results will be summarized with descriptive statistics as appropriate.

rabbits = assay: Cardiovascular effects in unconscious female rabbits; assay type: in vivo, rabbit; conditions: intravenous, doses up to 1 mg/kg
Source text: as §1

[5] = Absorption and systemic toxicity in animals, FITC labeling; assay type: in vivo
healthy adults [6] = assay: Multi-dose safety trial in healthy adults (CLIN1001-003); assay type: in vivo, human; conditions: 24 healthy adults, 250 μg, 1, or 4 mg or placebo three times a day
Source text: The multi-dose trial was a double-blind, placebo controlled, randomized trial of 24 healthy adults. […] Reported AEs were all mild and headache was the most common AE.

healthy adults [7] = assay: Single dose safety trial in healthy adults (CLIN1001-001); assay type: in vivo, human
Source text: The single dose trial was a double-blind, placebo controlled, randomized trial of 24 healthy adults. […] All AEs reported in this study resolved without concomitant therapy. Headache was the most common AE experienced, reported one time each by 3 (13%) subjects.

[8] = tested on: human peripheral lymphocytes; assay: In vitro chromosome aberration study; conditions: up to 1200 μg, with and without metabolic activation
[9] = oral once daily for 28 days up to 1000 mg/kg
[10] = CD subjects, 12 mg once daily Days 1-3, N = 14
[11] = Related = Possible, probably, definite combined causalities, 12 mg, N = 14
[12] = dogs, up to 9 mg/kg daily for 4 weeks
[13] = Phase IIa, preliminary observations
[14] = 24 healthy adults, 3, 12, or 36 mg or placebo, single dose

Source text for CD subjects: One cohort of 24 subjects was planned, with a 2:1 randomization (drug:placebo) for once daily dosing on Days 1, 2 and 3. On Day 2, all subjects would receive a 2.5 gram oral gluten challenge in single blind fashion.
Safety measures included monitoring of AEs, standard clinical panels for chemistry, hematology, and urinalysis, pregnancy screening, EKG, vital signs and physical exam findings.
Spontaneous adverse events collected throughout the study were categorized according to WHO adverse reaction terminology and evaluated for duration, intensity, and possible association with the study drug per ICH guidelines. In addition, the following procedures were performed at various points throughout the course of the study: vital signs, complete physical exams, 12-lead electrocardiograms, full clinical (safety) laboratory analyses, serum pregnancy, urine drug screen and HIV and hepatitis serologies.
All adverse events reported during the study were listed, documenting course, severity, and outcome and summarized by treatment, giving the number of subjects who experienced an adverse event, the maximum severity, and body system. GI adeverse events for each arm were tabulated by subject count and compared via Fisher's exact test.
EKG results were classified as normal and abnormal. PR, RR, QRS, QT, and QTc intervals will be carefully examined and abnormalities tabulated.

## CC(C)C[C@H](NC(=O)[C@@H](NC(=O)CNC(=O)CN)C(C)C)C(=O)N[C@H](C(=O)N[C@@H](CCC(N)=O)C(=O)N1CCC[C@H]1C(=O)NCC(=O)O)C(C)C [AT-1001] (H-GGVLVQPG-OH)
rats; 28 day study, males at week 8 (recovery week 4)
  Body weight gain in recovery group: body weight gain was lower in the dose males at week 8
rats; oral gavage once daily for 14 days up to 1000 mg/kg
  Treatment-related findings, 14 day repeat-dose study: no treatment-related clinical observations, clinical pathology changes, body weight or weight gain changes, organ weight changes, or gross or microscopic tissue changes
rats; [9]
  Food consumption, body weights/gains, ophthalmic observations: unaffected by treatment
  Gross necropsy or histopathology findings: No gross necropsy or histopathology findings were considered to be treatment-related
  Treatment-related deaths: No treatment-related deaths occurred
rats; single dose intravenously up to 5 mg/kg
  Clinical observations, clinical chemistry, gross postmortem observations: no clinical observations, clinical chemistry changes, or gross postmortem observations
[1]
  Effect on IKr current: None of the concentrations of AT-1001 caused statistically significant effects
[2]
  Stability: up to 1 year
[3]
  Mutagenic activity: negative for mutagenic activity
CD subjects; 12 mg in CD subjects
  Overall safety and tolerability: generally safe, well tolerated
CD subjects; 12 mg, N = 14
  (%) of serious AEs: (0) %
  Number of serious AEs: 0
CD subjects; 12 mg, N = 14, p 0.018 vs placebo
  Gastrointestinal Disorders, Subject Count (%): 6 (43%)
CD subjects; CD subjects, 12 mg once daily Days 1-3, 2.5 g gluten Day 2, N = 14
  Number of subjects reporting an AE: 10
CD subjects; [10]
  (%) of subjects discontinued study due to AE: (0) %
  (%) of subjects reporting an AE: (71) %
  Number of subjects discontinued study due to AE: 0
  Total number of AEs reported: 32
CD subjects; CD-related, 12 mg, N = 14
  Abdominal Discomfort, Subject Count (%): 0 (0%)
  Constipation, Subject Count (%): 0 (0%)
  Flatulence, Subject Count (%): 2 (14%)
  Vomiting, Subject Count (%): 3 (21%)
CD subjects; CD-related, 12 mg, N = 14, p 0.017 vs placebo
  Diarrhoea, Subject Count (%): 2 (14%)
CD subjects; Phase Ib study
  Abnormalities in safety laboratory tests, vital signs, ECG, physical examinations: no clinically significant abnormalities
CD subjects; Phase Ib study, 21 CD subjects, 12 mg or placebo for three days
  Deaths, SAEs, significant AEs, withdrawals due to AEs: no serious adverse events (SAEs); also recorded: no deaths, SAEs, significant AEs, or withdrawals due to AEs
CD subjects; [11]
  (%) of related AEs: (3) %
  Number of related AEs: 1
CD subjects; not CD-related, 12 mg, N = 14
  Dyspepsia, Subject Count (%): 3 (21%)
  Eructation, Subject Count (%): 1 (7%)
  Gastrooesophageal Reflux, Subject Count (%): 1 (7%)
  Nausea, Subject Count (%): 4 (29%)
  Stomach Discomfort, Subject Count (%): 2 (14%)
[4]
  Plasma drug levels: No measurable plasma drug levels
Beagle dogs; Beagle dogs, single dose up to 5 mg/kg intravenously, observed 14 days
  Signs of toxicity: no signs of toxicity were observed
Beagle dogs; dogs, enteric-coated beads 20 mg/kg day 1, 40 mg/kg day 2
  Clinical signs of toxicity: no clinical signs of toxicity were noted
Beagle dogs; dogs, enteric-coated beads 20 mg/kg day 1, 40 mg/kg day 2, 24 hr after 40 mg/kg
  Total protein and globulin levels: slightly elevated
Beagle dogs; dogs, enteric-coated beads orally up to 9 mg/kg daily for 4 weeks
  Treatment-related deaths and appearance: No treatment-related deaths occurred and all dogs appeared normal
Beagle dogs; [12]
  Body weights, body weight gains, ophthalmic observations and EKG readings: unaffected by treatment
  Gross necropsy or histopathology findings: None of the gross necropsy or histopathology findings were considered to be treatment-related
Celiac Disease subjects; Phase IIa patient population
  Safety and tolerability of multiple oral doses: demonstrated
Celiac Disease subjects; Phase IIa, 0.25-8 mg TID 14 days, preliminary observations
  Serious adverse events: No Serious Adverse Events (SAEs)
Celiac Disease subjects; [13]
  Clinically significant trends related to safety: No Clinically Significant trends related to safety
  Severity of adverse events: mild or moderate in severity
other
  solubility: > 1000 µg/mL
rabbits
  Effects on the EKG: no notable effects
[5]; fluorescent FITC labeling
  Passage into the submucosa or the vasculature: measurable amounts of the antagonist do not cross into the submucosa or the vasculature
[5]; supra-therapeutic dosing in animals
  Systemic toxicities: devoid of significant systemic toxicities
[5]; supra-therapeutic dosing in animals, multi-particulate oral formulation
  Systemic absorption: not systemically absorbed to any significant extent
Healthy adults [6]
  Serious adverse events: No Serious Adverse Events (SAEs)
  Severity of adverse events: all mild in severity
Healthy adults [7]; [14]
  Serious adverse events: No Serious Adverse Events (SAEs)
  Severity of adverse events: mild or moderate in severity
Healthy adults [7]; single dose trial
  Clinically significant trends (clinical laboratory, vital sign, EKG, physical examination): No clinically significant treatment-related trends; also recorded: No Clinically Significant trends related to safety
[8]
  Structural or numerical chromosome aberrations: negative for inducing structural or numerical chromosome aberrations
